Read-outs that look alike come from different tables or passages of the source.

Format in all cases: cell-based
The test system of assay [1] is lung cancer cell line A549. The experiment in a line: MTT assay of cellular proliferation, A549. To be noted: Homo sapiens, read-out: EC50: Concentration that inhibits 50% of proliferation. The protocol:
(§1) Six lung cancer cell lines (NCI-H23, NCI-H460, NCI-H596, NCI-H2170, Calu-6 and A549), two colon cancer cell lines (HCT116 and SW460), one breast cancer cell line MDA-MB-231, one gastric cancer cell line NCI-N87, one prostate cancer cell line DU145, one cervical cancer cell line Hela, and one glioblastoma cell line T98G were obtained from ATCC. The T2 HCC cell line was derived from a mouse liver cancer model initiated by a transgene of MYC (Reference). All cell lines were cultured in DMEM (Gibco, Cleveland, TN, USA) supplemented with 5% fetal bovine serum (Gibco), penicillin (100 U/mL)-streptomycin (100 μg/mL) (Gibco, Cat. No. 15140-122), 2 mM L-glutamine (Gibco, 200 mM solution, Cat. No. 25030081), and 1 mM sodium pyruvate (Gibco, 100 mM solution, Cat. No. 11360070) at 37° C. in a humidified incubator that was maintained at 5% CO2.
(§2) The MTT assay measures cellular metabolic activity as a proxy for cell viability and involves the conversion of the water-soluble yellow dye MTT [3-(4,5-dimethylthiazol-2-yl)-2,5-diphenyltetrazolium bromide] into an insoluble purple formazan by the action of mitochondrial reductase. Formazan is then solubilized and its concentration is determined by measuring the optical density (OD) value at a wavelength of 570 nm. The value is in proportional to the number of live cells with excellent linearity up to ˜10^6 cells per well. The MTT assay was used to determine the EC50 value, the concentration of a compound that leads to 50% inhibition of cellular proliferation. Briefly, cells were split when growing to the mid-Log phase. Cells in 100 μL of culture medium were seeded into each well of 96-well microplates and cultivated for 15˜24 hours to reach a confluence of 20˜30% and were then exposed to drugs at concentrations ranging from 1 nM to 10 μM. At the endpoint, 20 μL of a MTT stock solution in DMSO (5 mg/mL) was added to each well that contains […] of DMEM. The microplates were left in the cell culture incubator for 3˜4 h before subjected to solubilization and determination of formazan at A570 in a microplate reader (BioTek ELX808iu). […] Therefore, these compounds might hold a broad utility in the treatment of a large variety of human malignancies.

Assay [2] concerns colon cancer cell line HCT116. Put plainly: Minimal effective concentration that elicits polyploidy, HCT116. The following applies: Homo sapiens, HCT-116, read-out: MECP: Minimal effective concentration that elicits polyploidy.
Assay [3] relates to lung cancer cell line NCI-H23. The experiment in a line: MTT assay of cellular proliferation, NCI-H23. To be noted: Homo sapiens, read-out: EC50: Concentration that inhibits 50% of proliferation. The protocol: as §1, §2
In assay [4] the test system is lung cancer cell line A549. Put plainly: Minimal effective concentration that elicits polyploidy, A549. To be noted: Homo sapiens, read-out: MECP: Minimal effective concentration that elicits polyploidy.
Assay [5] deals with breast cancer cell line MDA-MB-231. The experiment in a line: Minimal effective concentration that elicits polyploidy, MDA-MB-231. The following applies: Homo sapiens, read-out: MECP: Minimal effective concentration that elicits polyploidy.
Assay [6] deals with colon cancer cell line HCT116. Put plainly: MTT assay of cellular proliferation, HCT116. To be noted: Homo sapiens, HCT-116, read-out: EC50: Concentration that inhibits 50% of proliferation. Here is the method: as §1, §2
Assay [7] concerns lung cancer cell line NCI-H23. Put plainly: Minimal effective concentration that elicits polyploidy, NCI-H23. The following applies: Homo sapiens, read-out: MECP: Minimal effective concentration that elicits polyploidy.
Assay [8] deals with RPEMYC^H2B-GFP cells. Put plainly: Mechanism-informed phenotypic screening assay (mitotic arrest, polyploidy; GE IN-Cell Analyzer 2000). To be noted: 20 nM to 20 μM, 24, 48 or 72 hours, read-out: Mitotic Arrest (≥5%).
For assay [9], the system named is cervical cancer cell line Hela. Put plainly: Minimal effective concentration that elicits polyploidy, Hela. To be noted: Homo sapiens, read-out: MECP: Minimal effective concentration that elicits polyploidy.
Assay [10] has as its system gastric cancer cell line NCI-N87. Put plainly: MTT assay of cellular proliferation, NCI-N87. The following applies: Homo sapiens, read-out: EC50: Concentration that inhibits 50% of proliferation. Here is the method:
as §1, §2
A general note: Formazan colour is commonly taken as a measure of viable cells.

Assay [11] deals with RPEMYC^H2B-GFP cells. Put plainly: Mechanism-informed phenotypic screening assay (mitotic arrest, polyploidy; GE IN-Cell Analyzer 2000). To be noted: 20 nM to 20 μM, 24, 48 or 72 hours, read-out: Min. Effective conc. for polyploidy (≥5%). The protocol: We have Previously Developed a Mechanism-Informed Phenotypic Screening Assay to identify novel antimitotic agents (Li et al. 2019). Equipped with a prior understanding of the versatile functions of the chromosomal passenger protein (CPP) complex in orchestrating karyokinesis and cytokinesis, the screening assay is to score for phenotypes typically seen when the CPP complex is disabled. Specifically, the parameters for a positive hit are a temporary elevation of mitotic index (MI) at 24 hours of drug treatment and an accumulation of polyploid cells at 48 hours of drug treatment, indicative of mitotic arrest and cytokinetic failure respectively. These parameters exclude compounds that elicit only a prolonged arrest of cells in mitosis, a phenotype typically provoked by spindle toxins. The screening procedure is briefly summarized here. RPEMYC^H2B-GFP cells engineered to express a Histone 2B-EGFP fusion protein were passaged as batches of 96-well plates, 18-24 hours before exposure to the chemical compounds of the present disclosure at concentrations from 20 nM to 20 μM. At 24, 48 or 72 hours after initiation of treatment, cells were analyzed for either an arrest in mitosis or a change in DNA content by GE IN-Cell Analyzer 2000. As set forth in table 2 below, a value of greater than or equal to […] and less than or equal to 1.0 μM is marked e “A”; a value greater than […] and less than or equal to 10.0 μM is marked “B”; a value greater than 10.0 μM and less than or equal to 30.0 μM is marked “C”; and a value greater than 30.0 μM is marked “D.”

The test system of assay [12] is liver cancer cell line T2 HCC. Put plainly: Minimal effective concentration that elicits polyploidy, T2 HCC. To be noted: Mus musculus, read-out: MECP: Minimal effective concentration that elicits polyploidy.
Assay [13] concerns gastric cancer cell line NCI-N87. Put plainly: Minimal effective concentration that elicits polyploidy, NCI-N87. The following applies: Homo sapiens, read-out: MECP: Minimal effective concentration that elicits polyploidy.
The subject of assay [14] is cervical cancer cell line Hela. Put plainly: MTT assay of cellular proliferation, Hela. The following applies: Homo sapiens, read-out: EC50: Concentration that inhibits 50% of proliferation. The protocol: as §1, §2
The subject of assay [15] is breast cancer cell line MDA-MB-231. Put plainly: MTT assay of cellular proliferation, MDA-MB-231. The following applies: Homo sapiens, read-out: EC50: Concentration that inhibits 50% of proliferation. The protocol:
as §1, §2

The test system of assay [16] is liver cancer cell line T2 HCC. The experiment in a line: MTT assay of cellular proliferation, T2 HCC. To be noted: Mus musculus, read-out: EC50: Concentration that inhibits 50% of proliferation. Here is the method:
as §1, §2

The test system of assay [17] is SW480. The experiment in a line: Minimal effective concentration that elicits polyploidy, SW480. To be noted: Homo sapiens, read-out: MECP: Minimal effective concentration that elicits polyploidy.
For assay [18], the system named is colon cancer cell line SW460. The experiment in a line: MTT assay of cellular proliferation, SW460. To be noted: Homo sapiens, SW480; read-out: EC50: Concentration that inhibits 50% of proliferation. Here is the method:
as §1, §2

With `COC(=O)c1cc(OC)cc(Oc2nccnc2-c2ccncc2)c1` [Compound 17], the EC50 in assay [1] is 10 to 30 µM; in assay [3] it was 1 to 1000 nM; in [6] it was 1 to 1000 nM; in assay [10], 1 to 1000 nM; in assay [14] it was 1 to 1000 nM; in [15], 1 to 1000 nM. Also, in assay [16], the EC50 was 1 to 1000 nM. In addition, the minimal effective concentration was 0.001 to 1 µM in assay [2]; 0.001 to 1 µM in assay [4]; 0.001 to 1 µM in [5]; 0.001 to 1 µM in assay [7]; 1 µM in assay [8]; 0.001 to 1 µM in [9]. Besides, the minimal effective concentration in [11] was 1 µM; in [12] it was 0.001 to 1 µM; in [13] it was 0.001 to 1 µM.

For `CCOc1cc(Oc2ncccc2-c2ccnc(C)c2)cc(C(=O)NC)c1` [Compound 38, 3-ethoxy-N-methyl-5-((2′-methyl-[3,4′-bipyridin]-2-yl)oxy)benzamide], the EC50 lay within 0.001 to 1 µM in assay [1]; 1 to 1000 nM in assay [3]; 1 to 1000 nM in assay [6]; 1 to 1000 nM in [10]; 1 to 1000 nM in assay [14]; 1 to 1000 nM in assay [18]. For the same molecule, the EC50 in assay [15] and in [16] was 1 to 1000 nM throughout. Also, the minimal effective concentration was 0.001 to 1 µM in assay [2]; 0.001 to 1 µM in [4]; 0.001 to 1 µM in assay [5]; 0.001 to 1 µM in assay [17]; 0.001 to 1 µM in [7]; 1 µM in assay [8]. For the same molecule, the minimal effective concentration was 0.001 to 1 µM in assay [9], 1 µM in assay [11], 0.001 to 1 µM in assay [12] and 0.001 to 1 µM in assay [13].

`CNC(=O)c1cc(OC)cc(Oc2ncccc2-c2cccc(F)c2)c1` [Compound 92, 3-((3-(3-fluorophenyl)pyridin-2-yl)oxy)-5-methoxy-N-methylbenzamide]: the minimal effective concentration in assay [8] and in assay [11] was 1 µM throughout.

For the molecule `COc1cc(OC)cc(Oc2cncc(-c3ccccc3)n2)c1` [Compound 81, 2-(3,5-dimethoxyphenoxy)-6-phenylpyrazine], the minimal effective concentration in assay [8] and in assay [11] was 0.001 to 10 µM each time.

As to `COc1cc(OC)cc(Oc2ncccc2-c2ccnc(Cl)n2)c1` [Compound 84, 2-chloro-4-(2-(3,5-dimethoxyphenoxy)pyridin-3-yl)pyrimidine], the minimal effective concentration is 10 to 30 µM in assay [8] and greater than 30 µM in assay [11].

Consider `CNC(=O)c1cc(OC)cc(Oc2ncccc2-c2ccnc(N)n2)c1` [Compound 25, 3-((3-(2-aminopyrimidin-4-yl)pyridin-2-yl)oxy)-5-methoxy-N-methylbenzamide], for which the minimal effective concentration in assay [8] and in [11] was 1 µM in each case.

Consider `COc1cc(Oc2ncccc2-c2ccnc(C)c2)cc(O[C@H]2CCOC2)c1` [Compound 95, (S)-2-(3-methoxy-5-((tetrahydrofuran-3-yl)oxy)phenoxy)-2′-methyl-3,4′-bipyridine], for which the minimal effective concentration in assay [8] and in assay [11] was 1 µM in each case.

With `COc1cc(Oc2ncccc2-c2ccncc2)cc(O[C@H]2CCOC2)c1` [Compound 94, (S)-2-(3-methoxy-5-((tetrahydrofuran-3-yl)oxy)phenoxy)-3,4′-bipyridine], the minimal effective concentration in assay [8] and in assay [11] was 1 µM throughout.

For the molecule `COc1cc(OC)cc(Oc2nccnc2-c2ccncc2)c1` [Compound 15, 2-(3,5-dimethoxyphenoxy)-3-(pyridin-4-yl)pyrazine], the minimal effective concentration in assay [8] and in assay [11] was 1 µM in each case.

For `CCOc1cc(Oc2ncccc2-c2ccnc(C(F)(F)F)c2)cc(C(=O)NC)c1` [Compound 67, 3-ethoxy-N-methyl-5-((2′-(trifluoromethyl)-[3,4′-bipyridin]-2-yl)oxy)benzamide], the minimal effective concentration in assay [8] and in assay [11] was 0.001 to 10 µM each time.

On to `COc1cc(OC)cc(Oc2ncccc2-c2cc(OC)ncn2)c1` [Compound 60, 4-(2-(3,5-dimethoxyphenoxy)pyridin-3-yl)-6-methoxypyrimidine], for which the minimal effective concentration in assay [8] and in [11] was 1 µM each time.

On to `CCOCCOc1cc(-c2cccnc2Oc2cc(NC(C)=O)cc(OC)c2)ccn1` [Compound 87, N-(3-((2′-(2-ethoxyethoxy)-[3,4′-bipyridin]-2-yl)oxy)-5-methoxyphenyl)acetamide], for which the minimal effective concentration in assay [8] and in [11] was 1 µM in each case.

For the molecule `COc1cc(Oc2ncccc2-c2ccnc(C)c2)cc(C(=O)NC2CC2)c1` [Compound 98, N-cyclopropyl-3-methoxy-5-((2′-methyl-[3,4′-bipyridin]-2-yl)oxy)benzamide], the minimal effective concentration in [8] and in assay [11] was 1 µM throughout.

On to `COC(=O)c1cc(Oc2ncccc2-c2ccccc2)cc(C(=O)OC)c1` [Compound 56, dimethyl 5-((3-phenylpyridin-2-yl)oxy)isophthalate], for which the minimal effective concentration in [8] and in [11] was 1 µM each time.

The values are drawn from US20240262803A1, “COMPOUNDS, COMPOSITIONS AND METHODS OF TREATING DISORDERS” (Chungdu Anticancer Bioscience Ltd, priority 2021, published 2024).
